In general, IC50 refers to the concentration that gives 50% inhibition.

The values that follow come from patent US12410171B2, “Tropomyosin receptor kinase (TRK) degradation compounds and methods of use” (Cullgen (Shanghai), Inc., priority 2020, dated 2025).

In this test the test system is KM12 cells. Briefly: KM12 cell viability (CellTiter-Glo). The format is cell-based. The following applies: Homo sapiens, 72 h; KM12 cell viability, 11-point 3-fold serial dilution, 3 days, CellTiter-Glo; read-out: IC50. On the procedure:
KM12 or H358 cells were treated with 1000 nM CPD-053 following an 8-point 3-fold serial dilution for 3 days.
KM12 cells seeded in 96-well plates were treated with heterobifunctional compounds following a 11-point 3-fold serial dilution for 3 days.
KM12, H358, HEL, SU-DHL-1 and other cells were cultured at 37° C. with 5% CO2 in RPMI 1640 Medium supplemented with 10% fetal bovine serum. Cells were authenticated using the short tandem repeat (STR) assays. Mycoplasma test results were negative. Stable cell lines were established by lentivirus transduction, selected and maintained in medium containing 1 μg/mL puromycin (Beyotime Biotechnology).
Cells were seeded at a density of 5000 cells per well in 96-well assay plates and treated with test compounds following a 12-point 2-fold serial dilution or a 8-point 3-fold dilution, or 11-point 3-fold serial dilution. Three days later, cell viability was determined using the CellTiter-Glo assay kit (Promega) according to the manufacturer's instructions. The dose-response curves were determined and IC50 values were calculated using the GraphPad Prism software following a nonlinear regression (least squares fit) method.
In general terms: In ATP-based viability assays light output follows the ATP content of the culture.

Take `Cc1ncsc1-c1ccc(CNC(=O)[C@@H]2C[C@@H](O)CN2C(=O)[C@@H](NC(=O)CCOCCOCCOCCOCCC(=O)N2CCC(Nc3cccc(C(=O)Nc4cnn5ccc(N6CCC[C@@H]6c6cc(F)ccc6F)nc45)n3)CC2)C(C)(C)C)cc1` [CPD-468, N-(5-((R)-2-(2,5-difluorophenyl)pyrrolidin-1-yl)pyrazolo[1,5-a]pyrimidin-3-yl)-6-((1-((S)-18-((2S,4R)-4-hydroxy-2-((4-(4-methylthiazol-5-yl)benzyl)carbamoyl)pyrrolidine-1-carbonyl)-19,19-dimethyl-16-oxo-4,7,10,13-tetraoxa-17-azaicosanoyl)piperidin-4-yl)amino)picolinamide]: the IC50 was greater than 1000 nM.

In the case of `Cc1ncsc1-c1ccc(CNC(=O)[C@@H]2C[C@@H](O)CN2C(=O)[C@@H](NC(=O)CCOCCOCCOCCOCCOCCC(=O)N2CCC(Nc3cccc(C(=O)Nc4cnn5ccc(N6CCC[C@@H]6c6cc(F)ccc6F)nc45)n3)CC2)C(C)(C)C)cc1` [CPD-469, N-(5-((R)-2-(2,5-difluorophenyl)pyrrolidin-1-yl)pyrazolo[1,5-a]pyrimidin-3-yl)-6-((1-((S)-21-((2S,4R)-4-hydroxy-2-((4-(4-methylthiazol-5-yl)benzyl)carbamoyl)pyrrolidine-1-carbonyl)-22,22-dimethyl-19-oxo-4,7,10,13,16-pentaoxa-20-azatricosanoyl)piperidin-4-yl)amino)picolinamide], the IC50 is greater than 1000 nM.

Regarding `NC(=O)C1CCN(c2cc(CN3CCN(C(=O)CCOCCOCCNc4cccc5c4C(=O)N(C4CCC(=O)NC4=O)C5=O)CC3)ccc2NC(=O)c2coc(N3CCOCC3)n2)CC1` (centres unmarked) [CPD-486, N-(2-(4-carbamoylpiperidin-1-yl)-4-((4-(3-(2-(2-((2-(2,6-dioxopiperidin-3-yl)-1,3-dioxoisoindolin-4-yl)amino)ethoxy)ethoxy)propanoyl)piperazin-1-yl)methyl)phenyl)-2-morpholinooxazole-4-carboxamide], the IC50 is 230 nM.

Consider `NC(=O)C1CCN(c2cc(CN3CCN(C(=O)CCOCCOCCOCCOCCNc4cccc5c4C(=O)N(C4CCC(=O)NC4=O)C5=O)CC3)ccc2NC(=O)c2coc(N3CCOCC3)n2)CC1` (centres unmarked) [CPD-488, N-(2-(4-carbamoylpiperidin-1-yl)-4-((4-(1-((2-(2,6-dioxopiperidin-3-yl)-1,3-dioxoisoindolin-4-yl)amino)-3,6,9,12-tetraoxapentadecan-15-oyl)piperazin-1-yl)methyl)phenyl)-2-morpholinooxazole-4-carboxamide], for which the IC50 worked out at 147 nM.

In the case of `NC(=O)C1CCN(c2cc(CN3CCN(C(=O)CCOCCOCCOCCOCCOCCNc4cccc5c4C(=O)N(C4CCC(=O)NC4=O)C5=O)CC3)ccc2NC(=O)c2coc(N3CCOCC3)n2)CC1` (centres unmarked) [CPD-489, N-(2-(4-carbamoylpiperidin-1-yl)-4-((4-(1-((2-(2,6-dioxopiperidin-3-yl)-1,3-dioxoisoindolin-4-yl)amino)-3,6,9,12,15-pentaoxaoctadecan-18-oyl)piperazin-1-yl)methyl)phenyl)-2-morpholinooxazole-4-carboxamide], the IC50 came to 141 nM.

Regarding `Cc1ncsc1-c1ccc(CNC(=O)[C@@H]2C[C@@H](O)CN2C(=O)[C@@H](NC(=O)CCC(=O)N2CCN(Cc3ccc(NC(=O)c4coc(N5CCOCC5)n4)c(N4CCC(C(N)=O)CC4)c3)CC2)C(C)(C)C)cc1` [CPD-490, N-(2-(4-carbamoylpiperidin-1-yl)-4-((4-(4-(((S)-1-((2S,4R)-4-hydroxy-2-((4-(4-methylthiazol-5-yl)benzyl)carbamoyl)pyrrolidin-1-yl)-3,3-dimethyl-1-oxobutan-2-yl)amino)-4-oxobutanoyl)piperazin-1-yl)methyl)phenyl)-2-morpholinooxazole-4-carboxamide], the IC50 stood at 2800 nM.

As for `Cc1ncsc1-c1ccc(CNC(=O)[C@@H]2C[C@@H](O)CN2C(=O)[C@@H](NC(=O)CCCCC(=O)N2CCN(Cc3ccc(NC(=O)c4coc(N5CCOCC5)n4)c(N4CCC(C(N)=O)CC4)c3)CC2)C(C)(C)C)cc1` [CPD-491, N-(2-(4-carbamoylpiperidin-1-yl)-4-((4-(6-(((S)-1-((2S,4R)-4-hydroxy-2-((4-(4-methylthiazol-5-yl)benzyl)carbamoyl)pyrrolidin-1-yl)-3,3-dimethyl-1-oxobutan-2-yl)amino)-6-oxohexanoyl)piperazin-1-yl)methyl)phenyl)-2-morpholinooxazole-4-carboxamide], the IC50 was determined as 3700 nM.

On to `Cc1ncsc1-c1ccc(CNC(=O)[C@@H]2C[C@@H](O)CN2C(=O)[C@@H](NC(=O)CCCCCCC(=O)N2CCN(Cc3ccc(NC(=O)c4coc(N5CCOCC5)n4)c(N4CCC(C(N)=O)CC4)c3)CC2)C(C)(C)C)cc1` [CPD-492, N-(2-(4-carbamoylpiperidin-1-yl)-4-((4-(8-(((S)-1-((2S,4R)-4-hydroxy-2-((4-(4-methylthiazol-5-yl)benzyl)carbamoyl)pyrrolidin-1-yl)-3,3-dimethyl-1-oxobutan-2-yl)amino)-8-oxooctanoyl)piperazin-1-yl)methyl)phenyl)-2-morpholinooxazole-4-carboxamide], for which the IC50 was 178 nM.

As for `Cc1ncsc1-c1ccc(CNC(=O)[C@@H]2C[C@@H](O)CN2C(=O)[C@@H](NC(=O)CCOCCC(=O)N2CCN(Cc3ccc(NC(=O)c4coc(N5CCOCC5)n4)c(N4CCC(C(N)=O)CC4)c3)CC2)C(C)(C)C)cc1` [CPD-494], the IC50 is greater than 10000 nM.

Take `Cc1ncsc1-c1ccc(CNC(=O)[C@@H]2C[C@@H](O)CN2C(=O)[C@@H](NC(=O)CCOCCOCCC(=O)N2CCN(Cc3ccc(NC(=O)c4coc(N5CCOCC5)n4)c(N4CCC(C(N)=O)CC4)c3)CC2)C(C)(C)C)cc1` [CPD-495]: the IC50 was greater than 10000 nM.

In the case of `Cc1ncsc1-c1ccc(CNC(=O)[C@@H]2C[C@@H](O)CN2C(=O)[C@@H](NC(=O)CCOCCOCCOCCC(=O)N2CCN(Cc3ccc(NC(=O)c4coc(N5CCOCC5)n4)c(N4CCC(C(N)=O)CC4)c3)CC2)C(C)(C)C)cc1` [CPD-496, N-(2-(4-carbamoylpiperidin-1-yl)-4-((4-((S)-15-((2S,4R)-4-hydroxy-2-((4-(4-methylthiazol-5-yl)benzyl)carbamoyl)pyrrolidine-1-carbonyl)-16,16-dimethyl-13-oxo-4,7,10-trioxa-14-azaheptadecanoyl)piperazin-1-yl)methyl)phenyl)-2-morpholinooxazole-4-carboxamide], the IC50 came out at 8760 nM.

In the case of `Cc1ncsc1-c1ccc(CNC(=O)[C@@H]2C[C@@H](O)CN2C(=O)[C@@H](NC(=O)CCOCCOCCOCCOCCC(=O)N2CCN(Cc3ccc(NC(=O)c4coc(N5CCOCC5)n4)c(N4CCC(C(N)=O)CC4)c3)CC2)C(C)(C)C)cc1` [CPD-497, N-(2-(4-carbamoylpiperidin-1-yl)-4-((4-((S)-18-((2S,4R)-4-hydroxy-2-((4-(4-methylthiazol-5-yl)benzyl)carbamooyl)pyrrolidine-1-carbonyl)-19,19-dimethyl-16-oxo-4,7,10,13-tetraoxa-17-azaicosanoyl)piperazin-1-yl)methyl)phenyl)-2-morpholinooxazole-4-carboxamide], the IC50 is greater than 10000 nM.

With `COc1ccc(COc2ccc(Cn3c(N)nc4cc(-c5cnn(CC(=O)NCCOCCNc6cccc7c6C(=O)N(C6CCC(=O)NC6=O)C7=O)c5)cnc43)cc2OC)cc1` (centres unmarked) [CPD-502, 2-(4-(2-amino-3-(3-methoxy-4-((4-methoxybenzyl)oxy)benzyl)-3H-imidazo[4,5-b]pyridin-6-yl)-1H-pyrazol-1-yl)-N-(2-(2-((2-(2,6-dioxopiperidin-3-yl)-1,3-dioxoisoindolin-4-yl)amino)ethoxy)ethyl)acetamide], the IC50 turned out to be 682 nM.

Turning to `COc1ccc(COc2ccc(Cn3c(N)nc4cc(-c5cnn(CC(=O)NCCOCCOCCNc6cccc7c6C(=O)N(C6CCC(=O)NC6=O)C7=O)c5)cnc43)cc2OC)cc1` (centres unmarked) [CPD-503, 2-(4-(2-amino-3-(3-methoxy-4-((4-methoxybenzyl)oxy)benzyl)-3H-imidazo[4,5-b]pyridin-6-yl)-1H-pyrazol-1-yl)-N-(2-(2-(2-((2-(2,6-dioxopiperidin-3-yl)-1,3-dioxoisoindolin-4-yl)amino)ethoxy)ethoxy)ethyl)acetamide], the IC50 worked out at 504 nM.

As for `COc1ccc(COc2ccc(Cn3c(N)nc4cc(-c5cnn(CC(=O)NCCOCCOCCOCCNc6cccc7c6C(=O)N(C6CCC(=O)NC6=O)C7=O)c5)cnc43)cc2OC)cc1` (centres unmarked) [CPD-504, 2-(4-(2-amino-3-(3-methoxy-4-((4-methoxybenzyl)oxy)benzyl)-3H-imidazo[4,5-b]pyridin-6-yl)-1H-pyrazol-1-yl)-N-(2-(2-(2-(2-((2-(2,6-dioxopiperidin-3-yl)-1,3-dioxoisoindolin-4-yl)amino)ethoxy)ethoxy)ethoxy)ethyl)acetamide], the IC50 was found to be 334 nM.

Take `COc1ccc(COc2ccc(Cn3c(N)nc4cc(-c5cnn(CC(=O)NCCOCCOCCOCCOCCNc6cccc7c6C(=O)N(C6CCC(=O)NC6=O)C7=O)c5)cnc43)cc2OC)cc1` (centres unmarked) [CPD-505, 2-(4-(2-amino-3-(3-methoxy-4-((4-methoxybenzyl)oxy)benzyl)-3H-imidazo[4,5-b]pyridin-6-yl)-1H-pyrazol-1-yl)-N-(14-((2-(2,6-dioxopiperidin-3-yl)-1,3-dioxoisoindolin-4-yl)amino)-3,6,9,12-tetraoxatetradecyl)acetamide]: the IC50 was 195 nM.

With `COc1ccc(COc2ccc(Cn3c(N)nc4cc(-c5cnn(CC(=O)NCCOCCOCCOCCOCCOCCNc6cccc7c6C(=O)N(C6CCC(=O)NC6=O)C7=O)c5)cnc43)cc2OC)cc1` (centres unmarked) [CPD-506, 2-(4-(2-amino-3-(3-methoxy-4-((4-methoxybenzyl)oxy)benzyl)-3H-imidazo[4,5-b]pyridin-6-yl)-1H-pyrazol-1-yl)-N-(17-((2-(2,6-dioxopiperidin-3-yl)-1,3-dioxoisoindolin-4-yl)amino)-3,6,9,12,15-pentaoxaheptadecyl)acetamide], the IC50 worked out at 204 nM.
